Test: Inhibition of FTase

SMILES	IC50
N#Cc1ccc(Cn2ccnc2)cc1Oc1cccc(C2CCCCNC2=O)c1 (stereo not given)	41 nM
Fc1ccc2c(c1)[C@@H](OCc1ccc(Cl)cc1Cl)[C@@H](Cn1ccnc1)S2	700 nM
CN1CCC(C2c3ccccc3CCc3cccnc32)CC1 (stereo not given)	720000 nM
CC(C)CCCC(C)C1CCC2C3C(CC[C@]12C)[C@@](C)(C[C@@H](CC(=O)O)C(=O)O)C(=O)C[C@@H]3C (stereo not given in full)	40 nM
CC(=O)OCC(=O)[C@@]1(O)C(C)CC2C3CCC4=CC(=O)C=C[C@]4(C)C3=CC[C@@]21C (stereo not given in full)	40000 nM
COC(=O)[C@H](CCSC)NC(=O)c1cccc2cc(NC[C@H](N)CS)ccc12	500 nM
COc1ccccc1CC(=O)N1C[C@@H]2[C@@H]3CC[C@@](c4ccccc4)(c4ccccc43)[C@@H]2C1	40000 nM
O=C1CN(Cc2cncn2Cc2cccc(Oc3ccccc3)c2)CCN1c1ccc(C(F)(F)F)cc1	5800 nM
CC[C@@H](C)[C@@H](CN(CC(=O)N[C@@H](CCSC)C(=O)O)Cc1cccc2ccccc12)NC(=O)Cc1cn(Cc2ccncc2)cn1	74 nM
Cc1cccc2c1[C@@H](O)[C@@H](Cn1ccnc1)S2	270000 nM
N#Cc1ccc2cc1Oc1ccc3cccc(c3c1)N1CCN(CC1=O)Cc1cncn1C2	0.1 nM
O=C(Cc1ccncc1)N1CCN([C@H]2c3ccc(Cl)cc3CCc3cccnc32)CC1	140 nM
CC[C@@H](C)[C@@H](CO[C@@H](Cc1ccccc1)C(=O)N[C@@H](CCS(C)(=O)=O)C(=O)OC)NC[C@@H](N)CS	240 nM

Continued by falling IC50, values first:

IC50	SMILES
21 nM	CCCC[C@H]1CN(C(=O)c2cccc3ccccc23)CCN1Cc1cncn1Cc1ccc(C#N)cc1
18 nM	CSCC[C@H](NC(=O)c1cccc2cc(NC[C@H](N)CS)ccc12)C(=O)O
8 nM	C=C(C(=O)N1C[C@H]2[C@@]3(c4ccc(C)cc4)CC[C@H](c4ccccc43)[C@@]2(C(=O)O)C1)c1ccccc1OC
5 nM	N#Cc1ccc(Cn2cncc2CN2CCN(c3ccccc3)C(=O)C2)cc1
5 nM	Cn1cncc1C(OCc1ccc(C#N)cc1NC(=O)c1ccccc1)c1ccc(C#N)cc1 (stereo not given)
2.4 nM	CN1CCN(C(=O)c2cn(Cc3cncn3Cc3ccc4c(c3)OCO4)cc2-c2cccc3ccccc23)CC1
1.8 nM	CC[C@@H](C)[C@@H](CO[C@@H](Cc1ccccc1)C(=O)N[C@@H](CCS(C)(=O)=O)C(=O)O)NC[C@@H](N)CS
1.5 nM	CC[C@]1(c2cccc(Oc3cc([C@@](C)(N)c4cncn4C)ccc3C#N)c2)CCCCN(C)C1=O
1 nM	N#Cc1ccc(Cn2cncc2CN2CCN(c3cccc(Cl)c3)C(=O)C2)cc1Oc1ccc2ccccc2c1
0.44 nM	CCCC[C@H]1CN(c2ccc(Cl)cc2)C(=O)CN1Cc1cncn1Cc1ccc(C#N)cc1
0.15 nM	CC[C@@H](C)[C@@H](CN(CC(=O)N[C@@H](CCSC)C(=O)O)Cc1cccc2ccccc12)NC(=O)Cc1cncn1Cc1ccc(C#N)cc1
0.06 nM	CC[C@@]1(c2cccc(Oc3cc([C@@](C)(N)c4cncn4C)ccc3C#N)c2)CCCCN(C)C1=O

From ChEMBL document CHEMBL1140594, “Farnesyltransferase pharmacophore model derived from diverse classes of inhibitors” (Bioorg Med Chem Lett, 2007)
